We go through 14 compounds from patent US20230357179A1, “RAF KINASE INHIBITORS AND METHODS OF USE THEREOF” (Deciphera Pharmaceuticals, LLC, priority 2021, published 2023).

For one test, the target named is T1, C-Raf kinase (Homo sapiens, UniProt P04049, Y340D/Y341D).
T1 construct: Y340D,; GST (N); purchased Sigma
Nature of the test: Biochemical assay for C-Raf.1 (coupled pyruvate kinase/lactate dehydrogenase). The following applies: read-out: CRAF.1 IC50. A digest of the protocol: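 NADH depletion at 340 nm monitored continuously for 6 h at 30° C, with rates taken over 4–5 h. The coupled pyruvate kinase/lactate dehydrogenase reaction used 1 mM ATP, 30.1 nM MEK substrate and 0.43 nM kinase at pH 7.5. IC50 was fitted sigmoidally from percent inhibition of serially diluted compound.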

The next test has as its target T2, B-Raf kinase (Homo sapiens, UniProt P15056).
T2 construct: GST (N); purchased Sigma
Nature of the test: Biochemical assay for B-Raf.1 (coupled pyruvate kinase/lactate dehydrogenase). The conditions noted are these: read-out: BRAF.1 IC50. The procedure, abridged: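 Reaction rates over the 4–5 h window of a continuous 6 h, 30 °C read were converted to percent inhibition and fitted for IC50. B-Raf (0.13 nM) phosphorylated 30.1 nM MEK with 1 mM ATP; ADP coupled via PK/LDH to NADH loss at 340 nm, 1% DMSO final.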

For a further test, the system named is WM3928 cells. Nature of the test: WM3928 cell proliferation assay (1), resazurin, 96-well. Type of test: cell-based. The following applies: inhibition of cell proliferation. On the procedure:
WM3928 Cell Proliferation Assay (1)
WM3928 cells (#WM3928-01-0001) are obtained from Rockland Immunochemicals Inc (Gilbertsville, PA). Briefly, cells were grown in MCDB 153 medium (Sigma, #M7403, St. Louis, MO) supplemented with 20% Leibovitz's L-15 (ThermoFisher #11415-064, Waltham, MA), 2% heat inactivated fetal bovine serum (ThermoFisher, #A3840001, Waltham, MA), 5 μg/mL Insulin (Bovine Pancreas) (Sigma, #I0516, St. Louis, MO), 1.68 mM Calcium Chloride (Sigma, #C-34006, St. Louis, MO) and 1% Penicillin/Streptomycin/L-Glutamine (ThermoFisher #10378016, Waltham, MA) at 37° C., 5% CO2, and 95% humidity. Cells are expanded until reaching 70-95% confluency at which point they are subcultured or harvested for assay use. A serial dilution of test compound is dispensed into a 96-well black clear bottom plate in triplicate. Three thousand cells are added per well in 200 μL complete growth medium in the 96-well plate. Plates are incubated for 67-72 hours at 37° C., 5% CO2, and 95% humidity. At the end of the incubation, 40 μL of a 440 μM solution of resazurin (Sigma, #199303, St. Louis, MO) in PBS is added to each well of the plate and plates are incubated for an additional 6-7 hours at 37° C., 5% CO2, and 95% humidity. Plates are read on a Synergy2 or equivalent reader (Biotek, Winooski VT) using an excitation of 540 nm and an emission of 600 nm. Data is analyzed using Prism software (GraphPad, San Diego, CA) to calculate IC50 values.

Another test has as its system Miapaca-2 cells. Nature of the test: MiaPaca-2 cell proliferation assay (1), resazurin, 96-well. Type of test: cell-based. The following applies: Homo sapiens, MIA PaCa-2, inhibition of cell proliferation. A digest of the protocol:
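Three thousand cells per well in DMEM with 10% FBS and 2.5% horse serum exposed to serially diluted compound in triplicate for 67-72 h at 37 °C, 5% CO2. Viability by resazurin (additional 5-6 h), fluorescence ex 540/em 600 nm; IC50 calculated.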
A general note: The colour change of resazurin is a common sign of viable cells or microbes.

Some results are limits rather than exact numbers.

T1 sequence (P04049 307-648 Y340D/Y341D): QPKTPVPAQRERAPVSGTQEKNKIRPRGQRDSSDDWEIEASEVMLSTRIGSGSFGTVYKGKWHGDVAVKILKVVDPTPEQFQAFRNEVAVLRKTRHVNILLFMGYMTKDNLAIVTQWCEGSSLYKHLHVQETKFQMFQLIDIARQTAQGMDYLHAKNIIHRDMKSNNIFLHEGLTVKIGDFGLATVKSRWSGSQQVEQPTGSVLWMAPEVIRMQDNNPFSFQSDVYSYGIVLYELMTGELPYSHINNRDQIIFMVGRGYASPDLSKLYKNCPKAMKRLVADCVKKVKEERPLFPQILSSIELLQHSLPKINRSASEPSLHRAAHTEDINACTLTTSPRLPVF
T2 sequence (P15056 416-766): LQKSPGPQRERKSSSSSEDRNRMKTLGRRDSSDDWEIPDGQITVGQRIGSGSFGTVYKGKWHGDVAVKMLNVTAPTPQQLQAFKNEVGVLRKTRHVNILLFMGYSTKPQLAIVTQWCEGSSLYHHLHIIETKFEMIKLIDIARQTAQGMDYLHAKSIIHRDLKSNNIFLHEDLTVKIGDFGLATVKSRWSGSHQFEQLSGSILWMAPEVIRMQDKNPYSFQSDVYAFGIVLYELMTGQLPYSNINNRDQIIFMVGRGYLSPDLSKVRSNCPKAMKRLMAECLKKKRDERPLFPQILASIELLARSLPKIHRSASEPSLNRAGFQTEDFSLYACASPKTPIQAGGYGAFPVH

For the compound `Cc1cc(F)c(NC(=O)NCCC(C)(C)C)cc1-c1cc(OCCO)nc(C2=CCOCC2)c1` [Example 7], the half-maximal inhibitory concentration (IC50) (in general, the midpoint of a concentration-inhibition curve) is at most 0.1 µM at C-Raf kinase, at most 0.1 µM on B-Raf kinase, 0.1 to 0.5 µM in the test on WM3928 cells and 1 to 10 µM with Miapaca-2 cells.

`Cc1cc(F)c(NC(=O)NCC23CC(F)(C2)C3)cc1-c1cc(OCCO)nc(-c2ccnc3[nH]ncc23)c1` [Example 111]: the IC50 on C-Raf kinase was at most 0.1 µM; on B-Raf kinase, at most 0.1 µM; in the test with WM3928 cells, 1 to 10 µM; in the test with Miapaca-2 cells it was 1 to 10 µM.

For the compound `COC(C)(C)CCNC(=O)Nc1cc(-c2ccnc(-c3ccnc(NC(=O)C4CC4)c3)n2)c(C)cc1F` [Example 108], the IC50 at C-Raf kinase was at most 0.1 µM; on B-Raf kinase, at most 0.1 µM; in the test on WM3928 cells, 0.1 to 0.5 µM; with Miapaca-2 cells it was 1 to 10 µM.

As to `Cc1cc(F)c(NC(=O)NC2CC3(COC3)C2)cc1-c1cc(OCCO)nc(-c2ccnc3[nH]ncc23)c1` [Example 101], the IC50 was at most 0.1 µM at C-Raf kinase, 0.1 to 0.5 µM at B-Raf kinase, 1 to 10 µM in the test on WM3928 cells and 1 to 10 µM in the test with Miapaca-2 cells.

Consider `Cc1cc(F)c(NC(=O)NCCC2(C)COC2)cc1-c1cc(OCCO)nc(-c2ccnc3[nH]ncc23)c1` [Example 110], for which the IC50 on C-Raf kinase was 0.1 to 0.5 µM; on B-Raf kinase it was 0.1 to 0.5 µM; with WM3928 cells, 1 to 10 µM; in the test with Miapaca-2 cells it was 1 to 10 µM.

As for `COC1(CCNC(=O)Nc2cc(-c3cccc(-c4cc(NC(=O)C5CC5)ncn4)c3)c(C)cc2F)CC1` [Example 104], the IC50 on C-Raf kinase was at most 0.1 µM; on B-Raf kinase, at most 0.1 µM; in the test on WM3928 cells it was 0.1 to 0.5 µM; with Miapaca-2 cells, 1 to 10 µM.

For `Cc1cc(F)c(NC(=O)NCCC(C)(C)F)cc1-c1cccc(-c2ccnc3[nH]ncc23)c1` [Example 100], the IC50 is at most 0.1 µM on C-Raf kinase, at most 0.1 µM at B-Raf kinase, 0.5 to 1 µM in the test with WM3928 cells and 1 to 10 µM in the test on Miapaca-2 cells.

Consider `Cc1cc(F)c(NC(=O)NCCC(C)(C)F)cc1-c1nccc(-c2ccnc(NC(=O)C3CC3)c2)n1` [Example 114], for which the 50% inhibitory concentration (IC50) on C-Raf kinase is at most 0.1 µM; on B-Raf kinase, at most 0.1 µM; in the test on WM3928 cells it was 0.5 to 1 µM; in the test with Miapaca-2 cells, 1 to 10 µM.

As to `COC(=O)Nc1cc(-c2cc(-c3cc(NC(=O)NCCC(C)(C)C)cnc3C)ccn2)ccn1` [Example 109], the IC50 on C-Raf kinase was at most 0.1 µM; on B-Raf kinase, at most 0.1 µM; with WM3928 cells, 0.1 to 0.5 µM; in the test with Miapaca-2 cells, 1 to 10 µM.

Take `COC(=O)Nc1cc(-c2cc(-c3cc(NC(=O)NCCC(C)C)c(F)cc3C)cc(OCCO)n2)ccn1` [Example 115]: the half-maximal inhibitory concentration (IC50) at C-Raf kinase is at most 0.1 µM; on B-Raf kinase, at most 0.1 µM; in the test on WM3928 cells, at most 0.1 µM; with Miapaca-2 cells, 1 to 10 µM.

For the compound `Cc1cc(F)c(NC(=O)NCCC(C)C)cc1-c1cc(OCCO)nc(-c2ccnc(NC(=O)C3CC3)c2)c1` [Example 106], the IC50 is at most 0.1 µM on C-Raf kinase, at most 0.1 µM on B-Raf kinase, at most 0.1 µM in the test on WM3928 cells and 1 to 10 µM in the test with Miapaca-2 cells.

For `Cc1ncc(NC(=O)NCCC(C)(C)C)cc1-c1cc(-c2ccnc(NC(=O)C3CC3)c2)cnn1` [Example 120], the IC50 at C-Raf kinase was at most 0.1 µM; at B-Raf kinase it was at most 0.1 µM; in the test on WM3928 cells, 1 to 10 µM; in the test on Miapaca-2 cells it was 1 to 10 µM.

Consider `Cc1ncc(NC(=O)NC2CC(C)(C)C2)cc1-c1cc(OCCO)nc(-c2ccnc(NC(=O)C3CC3)c2)n1` [Example 144], for which the IC50 on C-Raf kinase is at most 0.1 µM; at B-Raf kinase, at most 0.1 µM; in the test with WM3928 cells it was 0.5 to 1 µM; in the test on Miapaca-2 cells it was 1 to 10 µM.

`Cc1ncc(NC(=O)NCCC2(C)CC2)cc1-c1ccnc(-c2ccnc(NC(=O)C3CC3)c2)n1` [Example 107]: the IC50 at C-Raf kinase was at most 0.1 µM; on B-Raf kinase it was at most 0.1 µM; in the test with WM3928 cells, 0.1 to 0.5 µM; with Miapaca-2 cells, 1 to 10 µM.
